Results taken from patent publication US8623892B2, “Metalloenzyme inhibitor compounds” (Viamet Pharmaceuticals, Inc., priority 2010, dated 2014).

Key:
CYP2C9 = CYP2C9 (Homo sapiens (Human), UniProt P11712); experiment: Inhibition of liver cytochrome P450 enzymes (pooled human liver microsomes), CYP2C9; details: read-out: CYP2C9 IC50
Experimental: (§1) Solutions of each test compound were separately prepared at concentrations of 20000, 6000, 2000, 600, 200, and 60 μM by serial dilution with DMSO:MeCN (50:50 v/v). The individual test compound solutions were then diluted 20 fold with DMSO:MeCN:deionized water (5:5:180 v/v/v) to concentrations of 1000, 300, 100, 30, 10, and 3 μM. […] The percent of organic solvent attributable to the test compound or inhibitor mixture in the final reaction mixture was 2% v/v.
(§2) Pooled human liver microsome suspension (20 mg/mL) was diluted with phosphate buffer to obtain a 5 mg/mL suspension. A solution of NADPH was prepared in phosphate buffer at a concentration of 5 mM. Separate stock solutions of each substrate were prepared in DMSO:MeCN (50:50 v/v), mixed, and diluted in phosphate buffer to obtain a single solution containing each substrate at five times its experimentally determined Km concentration. […]
(§3) Substrate solution and microsome suspension were combined in a 1:1 volume ratio, mixed, and distributed to reaction wells of a PCR plate. […] A portion of the supernatant was analyzed by gradient reverse-phase HPLC with detection by electrospray ionization triple quadrupole mass spectrometry in the positive ion mode.
(§4) Data was fitted to sigmoid dose-response curves and the inhibitory potency of each test compound was determined as its IC50 value.

CYP2C19 = CYP2C19 (Homo sapiens (Human), UniProt P33261); experiment: Inhibition of liver cytochrome P450 enzymes (pooled human liver microsomes), CYP2C19; details: read-out: CYP2C19 IC50
Experimental: as §1, §2, §3, §4

CYP17 = CYP17 (Rattus norvegicus (Rat), UniProt P11715); experiment: Inhibition of CYP17 (pooled rat testicular microsomes); type: biochemical
Experimental: CYP17 activity was assayed according to the following procedure. […] The individual test compound and isozyme inhibitor solutions were then diluted 20-fold with deionized water (50:950 v/v) to concentrations of 135, 27, 4.5, 0.9, 0.15, 0.03 and 0.005 μM. […] For active controls, blank test compound diluent was added in place of test compound solution.

Sequence of CYP17 (P11715 whole entry): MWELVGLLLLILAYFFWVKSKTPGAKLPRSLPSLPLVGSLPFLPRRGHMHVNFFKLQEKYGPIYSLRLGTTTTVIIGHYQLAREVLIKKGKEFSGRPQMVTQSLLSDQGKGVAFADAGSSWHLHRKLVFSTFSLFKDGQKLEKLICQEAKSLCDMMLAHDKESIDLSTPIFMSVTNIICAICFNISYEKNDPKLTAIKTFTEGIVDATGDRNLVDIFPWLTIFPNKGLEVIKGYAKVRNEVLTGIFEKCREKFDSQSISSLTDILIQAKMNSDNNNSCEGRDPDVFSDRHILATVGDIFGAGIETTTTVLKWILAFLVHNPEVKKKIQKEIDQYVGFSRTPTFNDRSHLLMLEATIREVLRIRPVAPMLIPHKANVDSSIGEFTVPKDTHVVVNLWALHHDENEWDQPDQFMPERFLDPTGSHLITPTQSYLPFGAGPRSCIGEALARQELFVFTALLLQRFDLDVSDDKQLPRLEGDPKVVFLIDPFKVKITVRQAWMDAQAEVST
Sequence of CYP2C19 (P33261 whole entry): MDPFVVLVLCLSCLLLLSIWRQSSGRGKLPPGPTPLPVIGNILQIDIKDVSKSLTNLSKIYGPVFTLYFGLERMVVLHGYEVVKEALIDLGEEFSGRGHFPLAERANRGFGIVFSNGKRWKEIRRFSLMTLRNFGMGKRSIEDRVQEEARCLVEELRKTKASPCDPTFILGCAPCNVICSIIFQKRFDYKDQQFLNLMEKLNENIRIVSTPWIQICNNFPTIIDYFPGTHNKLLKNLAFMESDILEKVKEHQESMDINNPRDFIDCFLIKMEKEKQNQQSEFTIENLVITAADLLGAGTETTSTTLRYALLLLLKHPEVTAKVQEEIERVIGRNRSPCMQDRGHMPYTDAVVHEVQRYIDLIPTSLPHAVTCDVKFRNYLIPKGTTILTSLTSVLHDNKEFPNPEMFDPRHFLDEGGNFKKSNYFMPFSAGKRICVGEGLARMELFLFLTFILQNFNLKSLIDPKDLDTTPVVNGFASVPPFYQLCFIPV
Sequence of CYP2C9 (P11712 whole entry): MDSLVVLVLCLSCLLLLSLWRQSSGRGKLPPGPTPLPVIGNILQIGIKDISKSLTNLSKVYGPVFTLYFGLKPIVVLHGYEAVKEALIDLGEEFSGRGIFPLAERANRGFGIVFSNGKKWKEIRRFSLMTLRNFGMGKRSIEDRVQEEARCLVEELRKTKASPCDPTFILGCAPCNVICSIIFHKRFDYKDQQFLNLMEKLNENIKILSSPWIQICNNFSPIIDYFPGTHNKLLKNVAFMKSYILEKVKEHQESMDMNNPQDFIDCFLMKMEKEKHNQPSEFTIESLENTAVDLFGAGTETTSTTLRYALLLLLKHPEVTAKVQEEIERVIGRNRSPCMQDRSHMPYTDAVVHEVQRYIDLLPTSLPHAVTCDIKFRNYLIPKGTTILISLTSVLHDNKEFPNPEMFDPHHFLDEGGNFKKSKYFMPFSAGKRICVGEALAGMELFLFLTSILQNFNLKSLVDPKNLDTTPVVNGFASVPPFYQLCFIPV

Compound	IC50 (CYP2C9) [µM]	IC50 (CYP2C19) [µM]	IC50 (CYP17) [µM]
CC(=O)N1CCN(c2ccc(OCC3COC(Cn4ccnc4)(c4ccc(Cl)cc4Cl)O3)cc2)CC1 (centres unmarked) [Ketoconazole, reference compound]			0.4
CC(C)C(O)(c1ccc2cc(-c3cnco3)ccc2c1)c1c[nH]nn1 (centres unmarked) [Example 4, 2-Methyl-1-(6-(oxazol-5-yl)naphthalen-2-yl)-1-(1H-1,2,3-triazol-4-yl)propan-1-ol]			0.51

Now from value to molecule:

IC50 (CYP2C9) [µM]	IC50 (CYP2C19) [µM]	IC50 (CYP17) [µM]	Compound
12	19		CC(C)C(O)(c1ccc2cc(OC(F)F)c(OC(F)F)cc2c1)c1c[nH]nn1 (centres unmarked) [Example 3, 1-(6,7-Bis(difluoromethoxy)naphthalen-2-yl)-2-methyl-1-(1H-1,2,3-triazol-4-yl)propan-1-ol]
39	33	0.18	COc1cc2ccc(C(O)(c3c[nH]nn3)C(C)C)cc2cc1OC (centres unmarked) [Example 1, 1-(6,7-Dimethoxynaphthalen-2-yl)-2-methyl-1-(1H-1,2,3-triazol-4-yl)propan-1-ol]
		0.96	COc1cc2cnc(C(O)(c3c[nH]nn3)C(C)C)cc2cc1OC (centres unmarked) [Example 2, 1-(6,7-Dimethoxyisoquinolin-3-yl)-2-methyl-1-(1H-1,2,3-triazol-4-yl)propan-1-ol]
